# Test results published in ChEMBL document CHEMBL1146060, “Guanidinylated 2,5-dideoxystreptamine derivatives as anthrax lethal factor inhibitors” (Bioorg Med Chem Lett, 2006).
# Target: T1, Lethal factor (Bacillus anthracis, UniProt P15917)
# T1 sequence (P15917 whole entry): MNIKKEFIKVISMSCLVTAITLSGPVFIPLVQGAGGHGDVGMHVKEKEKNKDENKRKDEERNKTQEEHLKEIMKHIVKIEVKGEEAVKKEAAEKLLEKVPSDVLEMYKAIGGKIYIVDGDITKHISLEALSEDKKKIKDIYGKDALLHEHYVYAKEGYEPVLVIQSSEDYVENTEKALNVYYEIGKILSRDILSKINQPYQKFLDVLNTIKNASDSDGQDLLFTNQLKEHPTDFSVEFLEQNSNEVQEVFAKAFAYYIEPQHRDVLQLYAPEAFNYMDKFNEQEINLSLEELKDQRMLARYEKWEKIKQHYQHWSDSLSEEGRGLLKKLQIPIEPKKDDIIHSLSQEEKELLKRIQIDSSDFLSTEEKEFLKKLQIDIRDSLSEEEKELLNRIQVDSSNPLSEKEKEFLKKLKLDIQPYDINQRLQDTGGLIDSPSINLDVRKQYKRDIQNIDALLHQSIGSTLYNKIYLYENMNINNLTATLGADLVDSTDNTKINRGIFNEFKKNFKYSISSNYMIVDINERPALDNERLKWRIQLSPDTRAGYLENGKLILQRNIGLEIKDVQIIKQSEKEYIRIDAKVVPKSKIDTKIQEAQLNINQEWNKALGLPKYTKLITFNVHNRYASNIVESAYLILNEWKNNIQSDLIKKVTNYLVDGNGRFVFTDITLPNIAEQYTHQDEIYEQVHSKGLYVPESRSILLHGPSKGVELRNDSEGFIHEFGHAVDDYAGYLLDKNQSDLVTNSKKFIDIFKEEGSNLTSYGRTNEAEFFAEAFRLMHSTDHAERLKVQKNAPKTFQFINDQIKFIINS
# Assay: Inhibition of Bacillus anthracis LF by FRET assay
# Conditions: read-out: Ki app
row,SMILES,Ki [µM]
1,N=C(N)Nc1ccc([C@H]2C[C@@H](O)[C@H](NC(=N)N)C[C@@H]2NC(=N)N)nc1,6.6
2,N=C(N)Nc1ccccc1NC(=O)O[C@H]1C[C@@H](O)[C@H](NC(=N)N)C[C@@H]1NC(=N)N,24.8
3,N=C(N)Nc1ccc([C@H]2C[C@@H](O)[C@H](NC(=N)N)C[C@@H]2NC(=N)N)c(NC(=N)N)c1,0.6
4,N=C(N)Nc1ccccc1[C@H]1C[C@@H](O)[C@H](NC(=N)N)C[C@@H]1NC(=N)N,30.6
5,Cc1cc(NC(=O)O[C@@H]2C[C@H](Oc3ccc(NC(=N)N)cc3N=C(N)N)[C@@H](N=C(N)N)C[C@H]2N=C(N)N)ccc1F,0.5
6,N=C(N)Nc1cc(NC(=N)N)c2ccccc2c1[C@H]1C[C@@H](O)[C@H](NC(=N)N)C[C@@H]1NC(=N)N,10.7
7,N=C(N)N[C@H]1C[C@@H](NC(=N)N)[C@H](O)C[C@@H]1c1ccc2[nH]c(N)nc2c1,154
8,N=C(N)Nc1ccc([C@H]2C[C@@H](O)[C@H](NC(=N)N)C[C@@H]2NC(=N)N)cc1,14.9
9,N=C(N)Nc1cccnc1[C@H]1C[C@@H](O)[C@H](NC(=N)N)C[C@@H]1NC(=N)N,4.1
10,N=C(N)Nc1ccc(O[C@H]2C[C@@H](Oc3ccc(NC(=N)N)cc3NC(=N)N)[C@H](NC(=N)N)C[C@@H]2NC(=N)N)c(NC(=N)N)c1,0.065
11,N=C(N)Nc1ccc([C@H]2C[C@@H](O)[C@H](NC(=N)N)C[C@@H]2NC(=N)N)c2ccccc12,31.4
